Laboratory results published in US8981112B2, “Inhibitors of β-secretase” (Boehringer Ingelheim International GmbH, priority 2012, dated 2015).
Like-named read-outs stand apart in the source and are kept apart here.

Assays:
hERG = hERG (Homo sapiens (Human), UniProt Q12809); assay: hERG-Channel Assay (Assay 3), whole-cell patch clamp; assay type: cell-based; details: for inhibition at 10 µM: human, HEK293 cells stably transfected with hERG, pH 7.4, HEK293 cells transfected with hERG
Source text: hERG-Channel Assay (Assay 3)
HEK (human embryonic kidney) 293 cells were stably transfected with hERG cDNA.
Cells were superfused with a bath solution containing (mM): NaCl (137), KCl (4.0), MgCl2 (1.0), CaCl2 (1.8), Glucose (10), HEPES (10), pH 7.4 with NaOH. Patch pipettes were made from borosilicate glass tubing using a horizontal puller and filled with pipette solution containing (mM): K-aspartate (130), MgCl2 (5.0), EGTA (5.0), K2ATP (4.0), HEPES (10.0), pH 7.2 with KOH. Resistance of the microelectrodes was in the range between 2 and 5 MΩ.
Membrane currents were recorded using an EPC-10 patch clamp amplifier and PatchMaster software. hERG-mediated membrane currents were recorded at 35° C., using the whole-cell configuration of the patch-clamp technique. Transfected HEK293 cells were clamped at a holding potential of −60 mV and hERG-mediated inactivating tail currents were elicited using a pulse pattern with fixed amplitudes (activation/inactivation: 40 mV for 2000 ms; recovery: −120 mV for 2 ms; ramp to 40 mV in 2 ms; inactivating tail current: 40 mV for 50 ms) repeated at 15 s intervals. During each inter-pulse interval 4 pulses scaled down by a factor of 0.2 were recorded for a P/n leak subtraction procedure. Rs compensation was employed up to a level that safely allowed recording devoid of ringing.
The different concentrations of the test compound were applied sequentially on each of the different cells investigated. A steady state level of baseline current was measured for at least 6 sweeps prior to the application of the first test compound concentration.
The test compound was dissolved in DMSO to yield a master stock solution which was diluted further in DMSO to stock solutions needed for the lower concentrations. Final dilutions in extracellular buffer were prepared freshly from these stocks by a 1:1000 dilution step each before starting the experiments.
Peak current amplitudes were measured 3 ms after the ramp to +40 mV. For baseline and each concentration the peak currents of the three last sweeps before application of the next concentration were averaged. Residual currents (I/I0) were calculated for each cell as the fraction of actual average peak current and average baseline peak current. Results are presented as percent (%) inhibition (1−I/I0)*100% at 10 μM.

[1] = tested on: production of Abeta1-x peptides in H4 neuroglioma cell line stably expressing human APP; assay: H4-APPwt Cell-Based Assay (Assay 2), Abeta1-x production
Method: H4-APPwt Cell-Based Assay (Assay 2)
Cellular potency of the compounds of the invention was assessed in an assay monitoring production of Abeta1-x peptides in the H4 neuroglioma cell line (ATCC, Cat. #HTB-148) stably expressing human APP, using an immunoassay such as AlphaLISA (PerkinElmer, Cat.# AL288). Tested compounds were dissolved in DMSO and pre-diluted in the culture medium (DMEM containing 10% FBS and 1% penicillin/streptomycin) to achieve twice the final concentration of the compounds in the assay. Equal volumes of the 2× solutions of the tested compounds and cell suspension were added to a 96-well culture plate, so that each well contained ˜10,000 cells in a final volume of 200 μl. Final concentration of DMSO in the assay was 0.2%. The plates were incubated for 5 hrs at 37° C., 5% CO2 to allow cells to attach to the bottom of the wells in the presence of the tested compounds. Then the media was removed and replaced with fresh media containing tested compounds at the same final concentration. The plates were incubated for 18 hrs at 37° C., 5% CO2. Concentrations of Ab1-x were determined using AlphaLISA immunoassay (PerkinElmer, Cat.# AL288) following manufacturer's protocol. Concentrations of Abeta1-x in the wells containing either DMSO or 10 μM beta-secretase inhibitor (BACE inhibitor IV, EMD Bioscience, Cat. #565788) were used as uninhibited and background controls, correspondingly, for calculating percent inhibition values for each well with the tested compounds.

[2] = target: truncated human beta-secretase, BACE1 (amino acids 1-454) (Homo sapiens (Human), UniProt P56817); assay: BACE1 Assay (Assay 1), fluorescence quench assay; assay type: biochemical
Method: The substrate was dissolved at 1 mg/ml in DMSO.
The assay was performed in the presence of OptiMEM (supernatant collected over 24 h and cleared from cellular debris by centrifugation) containing the ectodomain of BACE1, 25 μl water containing the desired 2-fold concentration of test compound and 2% DMSO, 1 μM substrate peptide, 20 mM NaOAc, pH 4.4, and 0.04% Triton-X100 in a total assay volume of 50 μl in a 384 well plate. In general, 25 μl of compound dilution were given to the plate followed by the addition of 10 μl of BACE1 containing OptiMEM™ diluted 1:10 in water with 0.2% Triton X-100. The reaction was started with the addition of 15 μl substrate in NaOAc buffer. The reaction was incubated at rt (dark) in an Envision® multilabel reader (Perkin Elmer) and the cleavage of the substrate was recorded as kinetic for 60 min at ex: 485 nm, em: 538 nm. Blank wells containing no enzyme were included on each plate.
The intensity of fluorescence was regressed against time in order to derive velocities of reaction in all 384 wells. These velocities were used for calculating percent control using an uninhibited control containing 1% DMSO as 100% and blank control performed in the absence of enzyme as 0%. IC50 values were calculated by fitting percent control vs. test compound concentration using Assay Explorer.

[3] = In Vitro Phospholipidosis Assay (Assay 4), Nile red staining; assay type: cell-based; details: human, first effect concentration, U937 cells, read-out: Phospholipidosis FEC IC50 μM (assay 4)
Method: In Vitro Phospholipidosis Assay (Assay 4)
The phospholipidogenic potential of test compounds was assayed using the human hematopoetic U937 cell line. The test principle was to analyze the phospholipid content by staining the cells with the fluorescent dye Nile red.
U937 cells were seeded into cell culture plates at 0.5×10^6 cells/mL in RPMI medium containing 10% FBS, 1% DMSO, and 0.005% gentamicin. The cells were then cultivated with or without different concentrations of test compounds for 48 h under standard culture conditions.
For harvesting the cells were centrifuged at 130×g for 4 min and washed once with PBS. Then 2×0.5 mL cell suspension was prepared for non-fixed cell measurement (0.5 mL for propidium iodide (PI) viability measurement and 0.5 mL for Nile red measurement).
The remaining cells were fixed with 3.7% formaldehyde for 30 min. After a further centrifugation step cells were resuspended with 1.3 mL Nile red working solution (1 μg/mL) and incubated for 5 min at rt. The cell suspension was then washed twice with 3 mL PBS and centrifuged with 130×g for 4 min. The supernatant was discarded and the cells were resuspended with 0.5 mL PBS and kept for flow cytometry measurement. For Nile red staining of the 0.5 mL non-fixed cell samples, 50 μL of a ready to use Nile red solution (10 μg/mL) were added per sample. Samples were kept on ice for 5 min. Thereafter, they were washed once with 4 mL PBS (4° C., 250×g for 8 min) and finally resuspended in 400 μL PBS and kept for flow cytometry measurement.
For the viability measurement, 12.5 μL of the ready to use PI solution (10 μg/mL) were added to the 0.5 mL non-fixed cell suspension. After 15 min of incubation on ice, the samples were measured by flow cytometry using a Coulter Epics XL/MCL flow cytometer.
The viability of the cells of each sample was determined by flow cytometry measurement of the PI content at channel 2 (568-590 nm). Cut-off gates for the fluorescence-dependent differentiation between live and dead cells were defined based on the analysis of cell culture medium control samples.
Only samples with a cell viability of >=90% relative to control samples were analyzed for phospholipidosis. For that, each Nile red sample (non-fixed and fixed samples) was measured by flow cytometry at channel 1 (504-541 nm) and channel 4 (660-680 nm).
For each channel, relative Nile red fluorescence intensity of a test sample was calculated compared to control samples and expressed as percentage of control fluorescence intensity. The assessment of the phospholipidogenic potential and the first effect concentration (FEC) of a test compound was done manually based on the fluorescence intensities at both wavelengths for the fixed cells as well as for the non-fixed cells.

[4] = Homo sapiens, Table 2 comparison examples, read-out: H4-Cell assay (assay 2)
[5] = Table 2 comparison examples, read-out: BACE IC50 (assay 1)
[6] = read-out: BACE1 IC50 nM (assay 1)
[7] = H4 neuroglioma cells expressing human APP, Abeta1-x, read-out: H4-APPwt cell IC50 nM (assay 2)

truncated human beta-secretase, BACE1 (amino acids 1-454), sequence (P56817 22-454): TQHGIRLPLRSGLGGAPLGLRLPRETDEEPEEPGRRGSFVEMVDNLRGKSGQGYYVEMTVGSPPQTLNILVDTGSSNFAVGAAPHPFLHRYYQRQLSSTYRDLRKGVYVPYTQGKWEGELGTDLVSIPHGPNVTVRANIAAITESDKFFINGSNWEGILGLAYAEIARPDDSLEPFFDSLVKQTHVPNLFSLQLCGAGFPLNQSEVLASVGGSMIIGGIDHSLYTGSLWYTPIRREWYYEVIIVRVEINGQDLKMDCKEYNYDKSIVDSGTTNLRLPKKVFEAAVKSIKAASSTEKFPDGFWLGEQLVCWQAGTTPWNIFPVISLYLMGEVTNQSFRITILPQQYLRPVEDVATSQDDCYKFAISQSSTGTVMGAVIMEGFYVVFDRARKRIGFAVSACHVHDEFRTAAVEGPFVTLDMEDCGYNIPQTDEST
hERG, sequence (Q12809 whole entry): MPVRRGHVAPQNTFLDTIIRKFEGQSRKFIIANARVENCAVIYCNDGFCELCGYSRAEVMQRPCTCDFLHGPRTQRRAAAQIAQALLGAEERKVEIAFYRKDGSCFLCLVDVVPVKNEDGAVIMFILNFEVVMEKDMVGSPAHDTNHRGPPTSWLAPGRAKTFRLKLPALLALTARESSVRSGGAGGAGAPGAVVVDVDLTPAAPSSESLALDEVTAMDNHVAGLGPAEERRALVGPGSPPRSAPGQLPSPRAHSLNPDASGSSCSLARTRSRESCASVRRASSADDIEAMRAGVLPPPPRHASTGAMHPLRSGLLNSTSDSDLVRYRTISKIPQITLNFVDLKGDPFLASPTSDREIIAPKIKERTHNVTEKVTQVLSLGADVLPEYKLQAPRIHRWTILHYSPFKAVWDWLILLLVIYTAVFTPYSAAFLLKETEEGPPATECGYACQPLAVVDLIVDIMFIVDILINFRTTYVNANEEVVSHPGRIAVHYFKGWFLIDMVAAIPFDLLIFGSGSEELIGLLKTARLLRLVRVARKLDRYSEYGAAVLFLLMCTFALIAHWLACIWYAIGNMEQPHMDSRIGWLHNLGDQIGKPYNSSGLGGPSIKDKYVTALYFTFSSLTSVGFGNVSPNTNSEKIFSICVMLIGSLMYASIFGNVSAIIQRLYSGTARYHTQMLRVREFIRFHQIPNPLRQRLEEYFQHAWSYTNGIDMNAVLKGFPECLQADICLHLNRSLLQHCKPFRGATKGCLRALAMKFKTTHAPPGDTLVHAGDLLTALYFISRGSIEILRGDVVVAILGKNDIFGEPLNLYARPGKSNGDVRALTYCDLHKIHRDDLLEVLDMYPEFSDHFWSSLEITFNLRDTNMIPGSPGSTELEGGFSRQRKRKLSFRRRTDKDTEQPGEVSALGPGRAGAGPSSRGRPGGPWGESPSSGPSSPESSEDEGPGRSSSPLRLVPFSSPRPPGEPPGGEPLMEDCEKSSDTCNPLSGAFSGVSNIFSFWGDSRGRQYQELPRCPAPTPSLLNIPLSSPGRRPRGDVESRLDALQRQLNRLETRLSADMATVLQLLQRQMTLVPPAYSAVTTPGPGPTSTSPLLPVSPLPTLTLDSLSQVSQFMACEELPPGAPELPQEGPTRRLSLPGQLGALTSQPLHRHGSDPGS

SMILES	hERG (assay 3) (hERG; at 10 μM, Table 2 comparison examples)	IC50 [1, 4]	IC50 [2, 5]	inhibition at 10 µM (hERG)	IC50 at 48 h [3]	IC50 [2, 6]	IC50 [1, 7]
COC1CCC2(CC1)Cc1ccc(C#N)cc1C21N=C(N)N(CC2CCCO2)C1=O (centres unmarked) [Comparison example drawing 11, reference compound]	hERG (assay 3) 16% at 10 μM	7 nM					
COCCN1C(=O)C2(N=C1N)c1cc(C#N)ccc1C[C@]21CC[C@@H](OC)CC1 (some centres unmarked) [Comparison example drawing 14, reference compound]		16 nM	49 nM				
COC1CCC2(CC1)Cc1ccc(C#N)cc1C21N=C(N)N(C(C)C)C1=O (centres unmarked) [Comparison example drawing 17, reference compound]		16 nM	107 nM				
CO[C@H]1CC[C@]2(CC1)Cc1ccc(CCC3CC3)cc1[C@]21N=C(N)N(C[C@@H]2CCO2)C1=O [Comparison example drawing 20, reference compound]		16 nM	415 nM				
CC[C@@H]1C[C@]2(CC[C@H]1OC)Cc1ccc(C#N)cc1[C@]21N=C(N)N(Cc2ncccn2)C1=O [Example 1]				8%	200 µM	11 nM	0.76 nM
CC[C@@H]1C[C@]2(CC[C@H]1OC)Cc1ccc(C#N)cc1[C@]21N=C(N)N(CC(C)(C)F)C1=O [Example 3]				9%	> 200 µM	10 nM	0.57 nM
CC[C@H]1C[C@@]2(CC[C@@H]1OC)Cc1ccc(C#N)cc1[C@]21N=C(N)N(C[C@H]2CCCO2)C1=O [Example 5]				7%	200 µM		0.9 nM
COCCN1C(=O)[C@]2(N=C1N)c1cc(C#N)ccc1C[C@@]21CC[C@H](OC)[C@@H](C)C1 [Example 7]				8%	400 µM	2 nM	1.42 nM
CO[C@H]1[C@H](C)C[C@@]2(Cc3ccc(C#N)cc3[C@]23N=C(N)N(Cc2ncc(F)cn2)C3=O)C[C@@H]1C [Example 10]				38%	200 µM	9 nM	1.12 nM
CO[C@H]1[C@H](C)C[C@@]2(Cc3ccc(C#N)cc3[C@]23N=C(N)N(CC2(C)COC2)C3=O)C[C@@H]1C [Example 11]				6%	> 400 µM	4 nM	0.35 nM
CO[C@H]1[C@H](C)C[C@@]2(Cc3ccc(C#N)cc3[C@]23N=C(N)N(CC2CCOCC2)C3=O)C[C@@H]1C [Example 16]				6%	200 µM	11 nM	0.2 nM
CO[C@H]1[C@H](C)C[C@@]2(Cc3ccc(C#N)cc3[C@]23N=C(N)N(CCC2COC2)C3=O)C[C@@H]1C [Example 19]				8%	400 µM	6 nM	0.4 nM
CO[C@H]1[C@H](C)C[C@@]2(Cc3ccc(C#N)cc3[C@]23N=C(N)N(Cc2ccncn2)C3=O)C[C@@H]1C [Example 24]				23%	200 µM	5 nM	0.65 nM
CO[C@H]1[C@H](C)C[C@@]2(Cc3ccc(F)cc3[C@]23N=C(N)N(C[C@@H]2CCOC2)C3=O)C[C@@H]1C [Example 25]				10%	200 µM		0.99 nM
CO[C@H]1CC[C@@]2(Cc3ccc(C#N)cc3[C@]23N=C(N)N(CC2COCCO2)C3=O)C[C@@H]1C (some centres unmarked) [Example 27]				19%	> 200 µM	6 nM	0.95 nM
